Assays:
[1] = Inhibition of Ascaris suum eIF4E-3 assessed as inhibition of cap-dependent translation after 1 hr by cell-free Renilla luciferase reporter gene assay
Ascaris suum = assay: Ratio of m7GTP IC50 to compound IC50 for Ascaris suum eIF4E-3 assessed as inhibition of cap-dependent translation after 1 hr by cell-free Renilla luciferase reporter gene assay

Row | Structure (SMILES) | IC50 [1] | Ratio IC50 (Ascaris suum)
1 | C[n+]1cn([C@@H]2O[C@H](COP(=O)([O-])O)[C@@H](O)[C@H]2O)c2nc(NCC3CCCCC3)[nH]c(=O)c21 | 5.7 µM | –
2 | CN(Cc1ccccc1)c1nc2c(c(=O)[nH]1)[n+](C)cn2[C@@H]1O[C@H](COP(=O)([O-])O)[C@@H](O)[C@H]1O | > 50 µM | –
3 | CCCCNc1nc2c(c(=O)[nH]1)[n+](C)cn2[C@@H]1O[C@H](COP(=O)([O-])O)[C@@H](O)[C@H]1O | 3.9 µM | –
4 | C[n+]1cn([C@@H]2O[C@H](COP(=O)([O-])O)[C@@H](O)[C@H]2O)c2nc(NCc3ccc(Cl)cc3)[nH]c(=O)c21 | 3.8 µM | –
5 | C[n+]1cn([C@@H]2O[C@H](COP(=O)([O-])O)[C@@H](O)[C@H]2O)c2nc(NCc3ccc(-c4ccccc4)cc3)[nH]c(=O)c21 | 4.3 µM | –
6 | C[n+]1cn([C@@H]2O[C@H](COP(=O)([O-])O)[C@@H](O)[C@H]2O)c2nc(NCc3ccccc3)[nH]c(=O)c21 | 2.9 µM | –
7 | CC(C)CN(C)c1nc2c(c(=O)[nH]1)[n+](C)cn2[C@@H]1O[C@H](COP(=O)([O-])O)[C@@H](O)[C@H]1O | > 50 µM | –
8 | CCN(CC)c1nc2c(c(=O)[nH]1)[n+](C)cn2[C@@H]1O[C@H](COP(=O)([O-])O)[C@@H](O)[C@H]1O | > 50 µM | –
9 | CC(C)CNc1nc2c(c(=O)[nH]1)[n+](C)cn2[C@@H]1O[C@H](COP(=O)([O-])O)[C@@H](O)[C@H]1O | 4.5 µM | –

More lines, now with the values ahead:

Row | IC50 [1] | Ratio IC50 (Ascaris suum) | Structure (SMILES)
10 | 13.9 µM | – | CCN(C)c1nc2c(c(=O)[nH]1)[n+](C)cn2[C@@H]1O[C@H](COP(=O)([O-])O)[C@@H](O)[C@H]1O
11 | 6.1 µM | – | C[n+]1cn([C@@H]2O[C@H](COP(=O)([O-])OP(=O)(O)OP(=O)(O)O)[C@@H](O)[C@H]2O)c2nc(N)[nH]c(=O)c21
12 | > 50 µM | – | C[n+]1cn([C@@H]2O[C@H](COP(=O)([O-])O)[C@@H](O)[C@H]2O)c2nc(N(Cc3ccccc3)Cc3ccccc3)[nH]c(=O)c21
13 | 0.9 µM | 7 | COc1ccc(CNc2nc3c(c(=O)[nH]2)[n+](C)cn3[C@@H]2O[C@H](COP(=O)([O-])O)[C@@H](O)[C@H]2O)cc1
14 | > 50 µM | – | C[n+]1cn([C@@H]2O[C@H](COP(=O)([O-])O)[C@@H](O)[C@H]2O)c2nc(N)[nH]c(=O)c21
15 | > 50 µM | – | CCCCN(C)c1nc2c(c(=O)[nH]1)[n+](C)cn2[C@@H]1O[C@H](COP(=O)([O-])O)[C@@H](O)[C@H]1O
16 | 12.6 µM | – | C[n+]1cn([C@@H]2O[C@H](COP(=O)([O-])O)[C@@H](O)[C@H]2O)c2nc(NCc3ccc([N+](=O)[O-])cc3)[nH]c(=O)c21

Reference: ChEMBL document CHEMBL2062407, “Synthesis of N²-modified 7-methylguanosine 5'-monophosphates as nematode translation inhibitors” (Bioorg Med Chem, 2012)
